Assay results reported in US7645759B2, “Non-peptide bradykinin antagonists and pharmaceutical compositions therefrom” (Istituto Luso Farmaco D'Italia S.p.A., priority 2004, dated 2010).
Structures can show the parent of a compound that is named as a salt. Where two headings read alike, the source gives them in different places.

Key:
B2 human receptor [1] = biological target: T1, B2 human receptor (Homo sapiens, UniProt P30411); experiment: Binding to the human B2 receptor expressed in CHO cells
T1 construct: expressed in transfected cells; host or cells: CHO cells
T1 sequence (P30411 1-391): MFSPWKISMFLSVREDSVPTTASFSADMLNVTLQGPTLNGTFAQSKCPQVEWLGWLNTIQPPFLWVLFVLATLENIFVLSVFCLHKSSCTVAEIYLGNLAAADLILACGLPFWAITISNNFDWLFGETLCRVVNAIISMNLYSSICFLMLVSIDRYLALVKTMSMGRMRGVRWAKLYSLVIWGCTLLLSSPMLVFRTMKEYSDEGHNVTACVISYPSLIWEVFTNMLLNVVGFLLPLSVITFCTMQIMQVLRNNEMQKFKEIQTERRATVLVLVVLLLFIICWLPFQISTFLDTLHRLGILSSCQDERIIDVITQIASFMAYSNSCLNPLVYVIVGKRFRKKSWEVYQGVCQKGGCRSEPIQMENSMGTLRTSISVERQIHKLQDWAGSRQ

BK-induced bronchospasm = experiment: Inhibition of BK-induced bronchospasm in the guinea pig; format: in vivo; conditions: intratracheal dose which inhibited by 80% bronchial constriction for at least 210 min; for ED80: Cavia porcellus, inhaled or nasal, 3.5 h, read-out: it Dose
Experimental: The in vivo activity of the compounds of the present invention was evaluated as effectiveness in inhibiting BK-induced bronchospasm in the guinea pig (Tramontana, et al., J. Pharmacol. Exp. Therap. 296:1051-1057 (2001)), measuring the it dose (it=intratracheal administration) (in nmols/kg) which inhibited by 80% bronchial constriction for at least 210 min.

B2 human receptor [2] = biological target: T1, B2 human receptor; experiment: cell-based
[3] = human B2 receptor expressed in CHO cells
[4] = antagonistic activity, bradykinin-induced inositol production, CHO cells transfected with B2 human receptor
[5] = human B2 receptor expressed in CHO cells, read-out: pKi (converted)
[6] = antagonistic activity, bradykinin-induced inositol production, CHO cells transfected with B2 human receptor, read-out: pA2 (converted)

Ki (B2 human receptor [1]; [5]) [nM] | Kb (B2 human receptor [2]; [6]) [nM] | Kb (B2 human receptor [2]) [nM] | Ki (B2 human receptor [1]) [nM] | SMILES | pKi (B2 human receptor [1]; [3]) | ED80 (BK-induced bronchospasm) [µmol/kg] | pA2 (B2 human receptor [2]; [4]) | it Dose (BK-induced bronchospasm) [nmols/kg]
 |  |  |  | Cc1cc(C)c2cccc(OCc3c(Cl)ccc(S(=O)(=O)NC4(C(=O)N5CCN(C(=O)[C@@H](N)CCC[N+](C)(C)C)CC5)CCOCC4)c3Cl)c2n1.Cl.Cl.[Cl-] [Example 1, (4-(S)-amino-5-(4-{4-[2,4-dichloro-3-(2,4-dimethyl-quinolin-8-yloxymethyl)-benzenesulfonylamino]tetrahydropyran-4-carbonyl}piperazin-1-yl)-5-oxo-pentyl]trimethyl-ammonium chloride, dihydrochloride] | 10.3 | 0.03 | 10.3 | 
0.0631 | 0.2 |  |  | Cc1ccc2cccc(OCc3c(Cl)ccc(S(=O)(=O)NC4(C(=O)N5CCN(C(=O)[C@@H](N)CCC[N+](C)(C)C)CC5)CCOCC4)c3Cl)c2n1 [Example 2, (4-(S)-Amino-5-(4-(4-(2,4-dichloro-3-(2-methyl-quinolin-8-yloxymethyl)-benzenesulfonylamino)tetrahydropyran-4-carbonyl)-piperazin-1-yl-)5-oxo-pentyl)-trimethylammonium chloride, hydrochloride] |  | 0.1 |  | 
 |  |  |  | Cc1cc(C)c2cccc(OCc3c(Cl)ccc(S(=O)(=O)NC4(C(=O)N5CCN(C(=O)CCCC[N+](C)(C)C)CC5)CCOCC4)c3Cl)c2n1.O=C([O-])C(F)(F)F [Example 3, [5-(4-{4-[2,4-Dichloro-3-(2,4-dimethyl-quinolin-8-yloxymethyl)-benzene-sulfonylamino]tetrahydropyran-4-carbonyl}piperazin-1-yl)-5-oxo-pentyl]-trimethyl-ammonium trifluoroacetate.] | 10.1 |  | 9.5 | 100
 |  | 1 |  | CCN=C(NCC)NCCCC(N)C(=O)N1CCN(C(=O)C2(NS(=O)(=O)c3ccc(Cl)c(COc4cccc5c(C)cc(C)nc45)c3Cl)CCCC2)CC1 (stereo not shown) [WO03103671 ex 44] |  | 0.3 |  | 
 |  | 3.98 | 2 | Cc1ccc2cccc(OCc3c(Cl)ccc(S(=O)(=O)NC4(C(=O)N5CCN(C(=O)C(N)CCCNC(=N)N)CC5)CCCC4)c3Cl)c2n1 (stereo not shown) [WO03103671 ex 55] |  | 0.3 |  | 
 |  | 5.01 | 1.58 | Cc1ccc2cccc(OCc3c(Cl)ccc(S(=O)(=O)NC4(C(=O)N5CCN(C(=O)C(N)CCCCN(C)C)CC5)CCCC4)c3Cl)c2n1 (stereo not shown) [WO03103671 ex 57] |  | 0.3 |  | 
1.58 | 1 |  |  | Cc1cc(C)c2cccc(OCc3c(Cl)ccc(S(=O)(=O)NC4(C(=O)N5CCN(C(=O)C(N)CCCCN(C)C)CC5)CCCC4)c3Cl)c2n1 (stereo not shown) [WO03103671 ex 59] |  | 0.3 |  | 
0.794 | 1.26 |  |  | Cc1cc(C)c2cccc(OCc3c(Cl)ccc(S(=O)(=O)NC4(C(=O)N5CCN(C(=O)C(N)CCCCN)CC5)CCCC4)c3Cl)c2n1 (stereo not shown) [WO03103671 ex 63] |  | 0.3 |  | 
 |  | 6.31 | 0.2 | Cc1cc(C)c2cccc(OCc3c(Cl)ccc(S(=O)(=O)NC4(C(=O)N5CCN(C(=O)C(CCCC[N+](C)(C)C)[N+](C)(C)C)CC5)CCCC4)c3Cl)c2n1 (stereo not shown) [WO03103671 ex 88] |  |  |  | 

SMILES | Ki (B2 human receptor [1]; [5]) [nM] | Kb (B2 human receptor [2]; [6]) [nM] | Kb (B2 human receptor [2]) [nM] | Ki (B2 human receptor [1]) [nM] | pKi (B2 human receptor [1]; [3]) | ED80 (BK-induced bronchospasm) [µmol/kg] | pA2 (B2 human receptor [2]; [4]) | it Dose (BK-induced bronchospasm) [nmols/kg]
Cc1cc(C)c2cccc(OCc3c(Cl)ccc(S(=O)(=O)NC4(C(=O)N5CCN(C(=O)[C@@H](N)CCC[N+](C)(C)C)CC5)CCCC4)c3Cl)c2n1 [Example 4, [4-(S)-Amino-5-(4-{1-[2,4-dichloro-3-(2,4-dimethyl-quinolin-8-yloxymethyl)-benzenesulfonylamino]cyclopentanecarbonyl}piperazin-1-yl)-5-oxo-pentyl]-trimethyl-ammonium chloride, dihydrochloride.] | 0.0794 | 0.398 |  |  |  | 0.1 |  | 
